Patent US20230210853A1 (Halia Therapeutics, Inc., priority 2020, published 2023)
Like-named read-outs stand apart in the source and are kept apart here.

What was measured:
[1] = target: T1, full-length recombinant human NEK7 (Homo sapiens, UniProt Q8TDX7); experiment: NEK7 enzymatic assay ([33P]-ATP, casein substrate); assay type: biochemical
T1 construct: full-length recombinant human NEK7; GST (N); purchased SignalChem N09-10G; host or cells: Sf9 insect cells (baculovirus)
How it was run: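 Serially diluted compounds (10 μM down to 0.5 nM, 3-fold) were preincubated 20 min at room temperature with N-terminal GST-NEK7 from Sf9 cells and casein in pH 7.5 Hepes/MgCl2/EGTA/Brij35/DTT buffer containing 1% DMSO. [33P]-ATP then started a 2 h room-temperature reaction, stopped by spotting onto P81 paper. IC50 came from percent activity remaining versus vehicle.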

IL-1β release = IL-1β release assay (PMA-differentiated THP-1 cells, LPS + nigericin, cleaved IL-1β by JESS); assay type: cell-based; conditions: Homo sapiens
Experimental: (§1) Approximately 1.5 million THP-1 cells were plated in each well of a 6-well TC plate and incubated with 40 nM PMA in RPMI (10% FBS, 1% Penstrep) for 24 hours. The media was then removed and cells were rested in RPMI (10% FBS, 1% Penstrep) for 24 hours after which time the media was removed and cells were pre-treated for 2 hours with various concentrations of compounds of interest (typically serial 3-fold dilution in RPMI +5% FBS, concentrations ranging from 1 μM to 0.5 nM) in RPMI (5% FBS). The media was again removed and cells were incubated with 250 ng/mL LPS and compounds of interest (concentrations as above) in RMPI (5% FBS) for 2 hours. The media was removed for a last time and cells were incubated with 20 μM nigericin and compounds of interest (concentrations as above) in Opti-MEM for 30 minutes. Cell media was then collected and the amount of cleaved IL-1β was determined using a JESS instrument (Protein Simple) and standard protocols. Cleaved 1-PD antibody was obtained from Cell Signaling (catalogue #83186S) and was used at 1:20 dilution in antibody diluent 2. Protein Simple 1× anti-Rabbit HRP secondary antibody was used along with Protein Simple luminol and peroxide for chemiluminescent detection. Primary antibody incubation time was increased from 30 minutes to 60 minutes.
as §1, with “RPMI+5%” for “RPMI +5%”, “Il-1β” for “1-PD”

[2] = comparative compounds of Structure (II)
[3] = THP-1, comparative compounds of Structure (II), read-out: IL-1β release IC50
[4] = Table 2e, recombinant human NEK7, casein substrate
[5] = Table 2e, THP-1 cells, LPS + nigericin, read-out: IL-1β release IC50
[6] = Table 2d, recombinant human NEK7, casein substrate
[7] = 48 h, Table 2d, THP-1 cells, LPS + nigericin, read-out: IL-1β release IC50

T1 sequence (Q8TDX7 whole entry): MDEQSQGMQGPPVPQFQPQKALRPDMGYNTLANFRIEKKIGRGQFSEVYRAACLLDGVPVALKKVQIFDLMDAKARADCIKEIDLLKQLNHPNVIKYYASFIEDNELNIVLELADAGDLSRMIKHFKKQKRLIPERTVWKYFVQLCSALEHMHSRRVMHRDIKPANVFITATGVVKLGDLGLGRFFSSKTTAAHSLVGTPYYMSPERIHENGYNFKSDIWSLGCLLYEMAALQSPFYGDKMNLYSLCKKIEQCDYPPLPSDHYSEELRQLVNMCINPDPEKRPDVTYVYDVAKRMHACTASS

Nc1ncnc2c1c(-c1ccc3c(c1Cl)CCN3C(=O)Cc1cc(C(F)(F)F)ccc1F)cn2C1CC1 [II-16, 1-(5-(4-amino-7-cyclopropyl-7H-pyrrolo[2,3-d]pyrimidin-5-yl)-4-chloroindolin-1-yl)-2-(2-fluoro-5-(trifluoromethyl)phenyl)ehtan-1-one]
IC50 [1, 2]: < 150 nM | IC50 (IL-1β release; [3]): > 1000 nM

CN1CCN(Cc2ccc(NC(=O)Nc3ccc(Oc4ccnc5[nH]cc(C6CC6)c45)cc3F)cc2C(F)(F)F)CC1 [Ie-26, 1-(4-((3-cyclopropyl-1H-pyrrolo[2,3-b]pyridin-4-yl)oxy)-2-fluorophenyl)-3-(4-((4-methylpiperazin-1-yl)methyl)-3-(trifluoromethyl)phenyl)urea]
IC50 [1, 4]: 501 to 1500 nM | IC50 (IL-1β release; [5]): < 150 nM

Cc1c[nH]c2nccc(Oc3ccc(NC(=O)Nc4ccc(CN5CCN(C)CC5)c(C(F)(F)F)c4)c(F)c3)c12 [Ie-28, 1-(2-fluoro-4-((3-methyl-1H-pyrrolo[2,3-b]pyridin-4-yl)oxy)phenyl)-3-(4-((4-methylpiperazin-1-yl)methyl)-3-(trifluoromethyl)phenyl)urea]
IC50 [1, 4]: 151 to 300 nM | IC50 (IL-1β release; [5]): 151 to 300 nM

CCN1CCN(Cc2ccc(NC(=O)Nc3ccc(-c4nn(C5CC5)c5ncnc(N)c45)cc3F)cc2C(F)(F)F)CC1 [Id-49]
IC50 [1, 6]: < 150 nM | IC50 (IL-1β release; [7]): < 150 nM

Nc1ncnc2c1c(-c1ccc(NC(=O)Nc3ccc(CN4CCOCC4)c(C(F)(F)F)c3)c(F)c1)cn2C1CC1 [Id-31, 1-(4-(4-amino-7-cyclopropyl-7H-pyrrolo[2,3-d]pyrimidin-5-yl)-2-fluorophenyl)-3-(4-(morpholinomethyl)-3-(trifluoromethyl)phenyl)urea]
IC50 [1, 6]: 501 to 1500 nM | IC50 (IL-1β release; [7]): 301 to 500 nM

CC(C)(C)c1nnc(NC(=O)Nc2ccc(-c3nn(C4CC4)c4ncnc(N)c34)cc2F)s1 [Ia-33, 1-(4-(4-amino-1-cyclopropyl-1H-pyrazolo[3,4-d]pyrimidin-3-yl)-2-fluoropbenyl)-3-(5-(tert-butyl)-1,3,4-thiadiazol-2-yl)urea]
IC50 ([1]; Table 2a, recombinant human NEK7, casein substrate): 501 to 1500 nM | IC50 (IL-1β release; Table 2a, THP-1 cells, LPS + nigericin, read-out: II-1β release IC50): 301 to 500 nM

CN1CCC(=Cc2ccc(NC(=O)Nc3ccc(Oc4ccnc5[nH]cc(Cl)c45)cc3F)cc2C(F)(F)F)CC1 [Ie-20, 1-(4-((3-chloro-1-pyrrolo[2,3-b]pyridin-4-yl)oxy)-2-fluorophenyl)-3-(4-((1-methylpiperidin-4-ylidene)methyl)-3-(trifluoromethyl)phenyl)urea]
IC50 [1, 4]: 301 to 500 nM | IC50 (IL-1β release; [5]): < 150 nM

CC(C)(C)c1cc(NC(=O)Nc2ccc(Oc3ccnc4[nH]cc(Cl)c34)c(F)c2)n(-c2ccccc2)n1 [Ib-12, 1-(3-(tert-butyl)-1-phenyl-1H-pyrazol-5-yl)-3-(4-((3-chloro-1H-pyrrolo[2,3-b]pyridin-4-yl)oxy)-3-fluorophenyl)urea]
IC50 ([1]; Table 2b, recombinant human NEK7, casein substrate): 501 to 1500 nM | IC50 (IL-1β release; Table 2b, THP-1 cells, LPS + nigericin, read-out: Il-1β release IC50): < 150 nM

Cc1[nH]c2nccc(Oc3ccc(NC(=O)Nc4ccc(CN5CCN(C)CC5)c(C(F)(F)F)c4)c(F)c3)c2c1Cl [Ie-27, 1-(4-((3-chloro-2-methyl-1H-pyrrolo[2,3-b]pyridin-4-yl)oxy)-2-fluorophenyl)-3-(4-((4-methylpiperazin-1-yl)methyl)-3-(trifluoromethyl)phenyl)urea]
IC50 [1, 4]: 301 to 500 nM | IC50 (IL-1β release; [5]): < 150 nM

Nc1ncnc2c1c(-c1ccc3c(c1F)CCN3C(=O)Cc1ccc(F)c(C(F)(F)F)c1)nn2C1CCOCC1 [II-14, 1-(5-(4-amino-1-(tetrahydro-2H-pyran-4-yl)-1H-pyrazolo[3,4-d]pyrimidin-3-yl)-4-fluoroindolin-1-yl)-2-(4-fluoro-3-(trifluromethyl)phenyl)ethan-1-one]
IC50 [1, 2]: < 150 nM | IC50 (IL-1β release; [3]): > 1000 nM

CN1CCN(Cc2ccc(NC(=O)Nc3ccc(-c4cn(C5CC5)c5ncnc(N)c45)cc3F)cc2C(F)(F)F)CC1 [Id-33, 1-(4-(4-amino-7-cyclopropyl-7H-pyrrolo[2,3-d]pyrimidin-5-yl)-2-fluorophenyl)-3-(4-((4-methylpiperazin-1-yl)methyl)-3-(trifluoromethyl)phenyl)urea]
IC50 [1, 6]: < 150 nM | IC50 (IL-1β release; [7]): < 150 nM
